Data: US20230390384A1 (priority 2020, published 2023)

Tests used:
COVID-19 RBD antigen = assay type: in vivo, SARS-CoV-2; conditions: Example 2, FIG. 6b; 5 μg each S1 and RBD; L-pampo 75 μg Pam3CSK4 + 60 μg poly(I:C) vs Alum, Addavax, AddaS03; Balb/c mice i.m. twice at 3-week intervals, serum 2 weeks after second immunization
COVID-19 S1 antigen = assay type: in vivo, SARS-CoV-2; conditions: Example 2, FIG. 6a; 5 μg each S1 and RBD; L-pampo 75 μg Pam3CSK4 + 60 μg poly(I:C) vs Alum, Addavax, AddaS03; Balb/c mice i.m. twice at 3-week intervals, serum 2 weeks after second immunization
Mouse splenocytes = experiment: IFN-γ ELISPOT on splenocytes of immunized mice (cellular immune response); assay type: in vivo, Balb/c mice; conditions: Example 3, FIG. 11; test vaccine using only poly(I:C) as adjuvant, among all test vaccines

Substance	RBD antigen-specific antibody titer (COVID-19 RBD antigen)	S1 antigen-specific antibody titer (COVID-19 S1 antigen)	IFN-γ spot formation (ELISPOT) (Mouse splenocytes)
N-palmitoyl-S-[2,3-bis(palmitoyloxy)-(2RS)-propyl]-[R]-cystein-SKKKK [Pam3CSK4]	relatively superior	relatively superior	
poly(I:C)			most IFN-γ spot formation
